The values below are quoted from earlier work in patent US20050159471A1, “Compositions of a benzenesulfonamide or methylsulfonylbenzene cyclooxygenase-2 selective inhibitor and a cholinergic agent for the treatment of reduced blood flow or trauma to the central nervous system” (Pharmacia Corporation, priority 2003, published 2005).

The conditions of the series: administered to subjects following stroke.

As to citicoline, the behavioral parameters result was “improvement in behavioral parameters” and the infarction volume result was “decrease in infarction volume”.
